# Laboratory results as given in the supplement of paper PMC10307832.
# Tests used:
# Test in all cases: relative viability (nuclei count vs DMSO), 5 days (fraction); higher = more cells survive
# NCI-H1395 = system: NCI-H1395
# Method in brief: (§1)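 Relative viability was taken as the ratio of nuclei in treated wells to nuclei in vehicle wells. Lung cancer cell lines in 1536-well plates received compounds by pin tool one day after seeding, either one drug alone or a fixed anchor-drug dose plus five library-drug doses (not always all listed) in √10 steps. Nuclei were counted on 4× images after 5 days of treatment, and values are medians of duplicate plates.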
# NCI-H1993 = system: NCI-H1993
# Method in brief: as §1
# NCI-H2170 = system: NCI-H2170
# Method in brief: as §1
# NCI-H3122 = system: NCI-H3122
# Method in brief: as §1
# HOP-62 = system: HOP-62
# Method in brief: as §1
# NCI-H2342 = system: NCI-H2342
# Method in brief: as §1
# NCI-H2085 = system: NCI-H2085
# Method in brief: as §1
# ChaGo-K-1 = system: ChaGo-K-1
# Method in brief: as §1
# SK-LU-1 = system: SK-LU-1
# Method in brief: as §1
# LCLC-97TM1 = system: LCLC-97TM1
# Method in brief: as §1
# NCI-H520 = system: NCI-H520
# Method in brief: as §1
# NCI-H2126 = system: NCI-H2126
# Method in brief: as §1
# NCI-H1975 = system: NCI-H1975
# Method in brief: as §1
# LCLC-103H = system: LCLC-103H
# Method in brief: as §1
# NCI-H647 = system: NCI-H647
# Method in brief: as §1
# LOU-NH91 = system: LOU-NH91
# Method in brief: as §1
# NCI-H2405 = system: NCI-H2405
# Method in brief: as §1
# HCC-44 = system: HCC-44
# Method in brief: as §1
# EMC-BAC-2 = system: EMC-BAC-2
# Method in brief: as §1
# EPLC-272H = system: EPLC-272H
# Method in brief: as §1
# NCI-H460 = system: NCI-H460
# Method in brief: as §1
# NCI-H322M = system: NCI-H322M
# Method in brief: as §1
smiles,measurement,setting,value
C=C1C(=O)O[C@@H](CCCCCCCC)[C@@H]1C(=O)O [C-75] + Nc1ncn([C@H]2C[C@H](O)[C@@H](CO)O2)c(=O)n1 [Decitabine] (partner 2 µM),relative viability,NCI-H1395; first compound 0.08 µM,0.74
same,relative viability,NCI-H1395; first compound 0.253 µM,0.674
same,relative viability,NCI-H1395; first compound 2.53 µM,0.667
same,relative viability,NCI-H1395; first compound 8 µM,0.69
same,relative viability,NCI-H1993; first compound 0.08 µM,0.695
same,relative viability,NCI-H1993; first compound 0.253 µM,0.685
same,relative viability,NCI-H1993; first compound 0.8 µM,0.605
same,relative viability,NCI-H1993; first compound 2.53 µM,0.549
same,relative viability,NCI-H1993; first compound 8 µM,0.571
same,relative viability,NCI-H2170; first compound 0.08 µM,0.479
same,relative viability,NCI-H2170; first compound 0.253 µM,0.505
same,relative viability,NCI-H2170; first compound 0.8 µM,0.449
same,relative viability,NCI-H2170; first compound 2.53 µM,0.422
same,relative viability,NCI-H2170; first compound 8 µM,0.401
same,relative viability,NCI-H3122; first compound 0.08 µM,0.423
same,relative viability,NCI-H3122; first compound 0.253 µM,0.486
same,relative viability,NCI-H3122; first compound 0.8 µM,0.355
same,relative viability,NCI-H3122; first compound 2.53 µM,0.346
same,relative viability,NCI-H3122; first compound 8 µM,0.455
same,relative viability,HOP-62; first compound 0.08 µM,0.22
same,relative viability,HOP-62; first compound 0.253 µM,0.217
same,relative viability,HOP-62; first compound 0.8 µM,0.218
same,relative viability,HOP-62; first compound 2.53 µM,0.23
same,relative viability,HOP-62; first compound 8 µM,0.161
same,relative viability,NCI-H2342; first compound 0.08 µM,0.749
same,relative viability,NCI-H2342; first compound 0.253 µM,0.785
same,relative viability,NCI-H2342; first compound 0.8 µM,0.667
same,relative viability,NCI-H2342; first compound 2.53 µM,0.57
same,relative viability,NCI-H2342; first compound 8 µM,0.722
same,relative viability,NCI-H2085; first compound 0.08 µM,0.535
same,relative viability,NCI-H2085; first compound 0.253 µM,0.587
same,relative viability,NCI-H2085; first compound 0.8 µM,0.465
same,relative viability,NCI-H2085; first compound 2.53 µM,0.447
same,relative viability,NCI-H2085; first compound 8 µM,0.434
same,relative viability,ChaGo-K-1; first compound 0.08 µM,0.505
same,relative viability,ChaGo-K-1; first compound 0.253 µM,0.504
same,relative viability,ChaGo-K-1; first compound 0.8 µM,0.503
same,relative viability,ChaGo-K-1; first compound 2.53 µM,0.423
same,relative viability,ChaGo-K-1; first compound 8 µM,0.552
same,relative viability,SK-LU-1; first compound 0.08 µM,0.64
same,relative viability,SK-LU-1; first compound 0.253 µM,0.588
same,relative viability,SK-LU-1; first compound 0.8 µM,0.616
same,relative viability,SK-LU-1; first compound 2.53 µM,0.532
same,relative viability,SK-LU-1; first compound 8 µM,0.467
same,relative viability,LCLC-97TM1; first compound 0.08 µM,0.197
same,relative viability,LCLC-97TM1; first compound 0.253 µM,0.254
same,relative viability,LCLC-97TM1; first compound 0.8 µM,0.206
same,relative viability,LCLC-97TM1; first compound 2.53 µM,0.215
same,relative viability,LCLC-97TM1; first compound 8 µM,0.233
same,relative viability,NCI-H520; first compound 0.08 µM,0.488
same,relative viability,NCI-H520; first compound 0.253 µM,0.522
same,relative viability,NCI-H520; first compound 0.8 µM,0.498
same,relative viability,NCI-H520; first compound 2.53 µM,0.456
same,relative viability,NCI-H520; first compound 8 µM,0.356
same,relative viability,NCI-H2126; first compound 0.08 µM,0.598
same,relative viability,NCI-H2126; first compound 0.253 µM,0.617
same,relative viability,NCI-H2126; first compound 0.8 µM,0.609
same,relative viability,NCI-H2126; first compound 2.53 µM,0.561
same,relative viability,NCI-H2126; first compound 8 µM,0.534
same,relative viability,NCI-H1975; first compound 0.08 µM,0.373
same,relative viability,NCI-H1975; first compound 0.253 µM,0.334
same,relative viability,NCI-H1975; first compound 0.8 µM,0.32
same,relative viability,NCI-H1975; first compound 2.53 µM,0.299
same,relative viability,NCI-H1975; first compound 8 µM,0.431
same,relative viability,LCLC-103H; first compound 0.08 µM,0.697
same,relative viability,LCLC-103H; first compound 0.253 µM,0.716
same,relative viability,LCLC-103H; first compound 0.8 µM,0.674
same,relative viability,LCLC-103H; first compound 2.53 µM,0.623
same,relative viability,LCLC-103H; first compound 8 µM,0.725
same,relative viability,NCI-H647; first compound 0.08 µM,0.332
same,relative viability,NCI-H647; first compound 0.253 µM,0.422
same,relative viability,NCI-H647; first compound 0.8 µM,0.365
same,relative viability,NCI-H647; first compound 2.53 µM,0.306
same,relative viability,NCI-H647; first compound 8 µM,0.234
same,relative viability,LOU-NH91; first compound 0.08 µM,0.83
same,relative viability,LOU-NH91; first compound 0.253 µM,0.734
same,relative viability,LOU-NH91; first compound 0.8 µM,0.752
same,relative viability,LOU-NH91; first compound 8 µM,0.792
same,relative viability,NCI-H2405; first compound 0.08 µM,0.807
same,relative viability,NCI-H2405; first compound 0.253 µM,0.423
same,relative viability,NCI-H2405; first compound 0.8 µM,0.714
same,relative viability,NCI-H2405; first compound 2.53 µM,0.681
same,relative viability,NCI-H2405; first compound 8 µM,0.789
same,relative viability,HCC-44; first compound 0.08 µM,1.02
same,relative viability,HCC-44; first compound 0.253 µM,0.922
same,relative viability,HCC-44; first compound 0.8 µM,0.946
same,relative viability,HCC-44; first compound 2.53 µM,0.8
same,relative viability,HCC-44; first compound 8 µM,0.903
same,relative viability,EMC-BAC-2; first compound 0.08 µM,1.02
same,relative viability,EMC-BAC-2; first compound 0.253 µM,0.984
same,relative viability,EMC-BAC-2; first compound 0.8 µM,0.983
same,relative viability,EMC-BAC-2; first compound 2.53 µM,0.834
same,relative viability,EMC-BAC-2; first compound 8 µM,0.947
same,relative viability,EPLC-272H; first compound 0.08 µM,0.338
same,relative viability,EPLC-272H; first compound 0.253 µM,0.436
same,relative viability,EPLC-272H; first compound 0.8 µM,0.334
same,relative viability,EPLC-272H; first compound 2.53 µM,0.33
same,relative viability,EPLC-272H; first compound 8 µM,0.349
same,relative viability,NCI-H460; first compound 0.08 µM,0.469
same,relative viability,NCI-H460; first compound 0.253 µM,0.454
same,relative viability,NCI-H460; first compound 0.8 µM,0.46
same,relative viability,NCI-H460; first compound 2.53 µM,0.198
same,relative viability,NCI-H460; first compound 8 µM,0.492
same,relative viability,NCI-H322M; first compound 0.08 µM,0.693
same,relative viability,NCI-H322M; first compound 0.253 µM,0.782
same,relative viability,NCI-H322M; first compound 0.8 µM,0.604
same,relative viability,NCI-H322M; first compound 8 µM,0.66
